Patent US9302999B2, “Substituted triazoles as herbicides” (E. I. DU PONT DE NEMOURS AND COMPANY, priority 2012, dated 2016)
Read-outs that look alike come from different tables or passages of the source.

Columns and labels:
Format in all cases: in vivo
[1] = test system: crabgrass, large (large crabgrass, Digitaria sanguinalis); assay: Test A pre-/postemergence: crabgrass, large; conditions: for pest or weed control at 125 g/ha / pest or weed control at 500 g/ha: Digitaria sanguinalis, 240 h
Summary of the method: (§1)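 Injury is scored visually on a scale where 0 means no effect and 100 complete control, comparing treated with untreated plants after approximately ten greenhouse days. Both preemergence and postemergence applications are made at the same time.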

[2] = test system: foxtail, giant (giant foxtail, Setaria faberii); assay: Test A pre-/postemergence: foxtail, giant; conditions: for pest or weed control at 125 g/ha / pest or weed control at 500 g/ha: Setaria faberi, 240 h
Summary of the method: as §1

[3] = test system: pigweed (Amaranthus retroflexus); assay: Test A pre-/postemergence: pigweed; conditions: for pest or weed control at 125 g/ha / pest or weed control at 500 g/ha: Amaranthus retroflexus, 240 h
Summary of the method: as §1

[4] = test system: velvetleaf (Abutilon theophrasti); assay: Test A pre-/postemergence: velvetleaf; conditions: for pest or weed control at 125 g/ha / pest or weed control at 500 g/ha: Abutilon theophrasti, 240 h
Summary of the method: as §1

[5] = test system: wheat (Triticum aestivum); assay: Test A pre-/postemergence: wheat; conditions: for plant injury at 125 g/ha / plant injury at 500 g/ha: Triticum aestivum, 240 h
Summary of the method: as §1

[6] = test system: barnyardgrass (Echinochloa crus-galli); assay: Test B flooded paddy: barnyardgrass; conditions: Flood, applied to paddy water at 2-leaf stage, visually evaluated after 13 to 15 days
Summary of the method: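 Each compound is applied to the floodwater of pots holding 2-leaf seedlings, water standing 3 cm over the soil throughout. Plants stay in a greenhouse 13 to 15 days before visual scoring against controls from 0 (no effect) to 100 (complete control).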

[7] = test system: blackgrass (Alopecurus myosuroides); assay: Test C pre-/postemergence: blackgrass
Summary of the method: (§2)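 Visual injury scored 0–100 (100 = complete control) against untreated controls after 13–15 greenhouse days. Surfactant-containing solvent formulations applied either to soil after sowing (loam/sand) or over 1- to 4-leaf plants, 2–18 cm tall.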

[8] = test system: morningglory (Ipomoea coccinea); assay: Test C pre-/postemergence: morningglory
Summary of the method: as §2

[9] = test system: ragweed (common ragweed, Ambrosia elation); assay: Test C pre-/postemergence: ragweed
Summary of the method: as §2

[10] = test system: chickweed (common chickweed, Stellaria media); assay: Test C postemergence: chickweed
Summary of the method: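 Visual ratings of 0 (no effect) to 100 (complete control) were made against controls 13-15 days after a postemergence spray, with plants kept in a greenhouse. Plants were 2-18 cm tall (1- to 4-leaf stage) in Redi-Earth peat/vermiculite medium at treatment.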

[11] = Postemergence, 125 g ai/ha, 0 to 100 scale, 0 is no effect, 100 is complete control
[12] = Postemergence, 500 g ai/ha, 0 to 100 scale, 0 is no effect, 100 is complete control
[13] = Preemergence, 125 g ai/ha, 0 to 100 scale where 0 is no effect and 100 is complete control
[14] = Preemergence, 500 g ai/ha, 0 to 100 scale (0 no effect, 100 complete control)
[15] = Postemergence, 31 g ai/ha, scale 0 to 100 (0 no effect, 100 complete control)
[16] = Postemergence, 62 g ai/ha, scale 0 to 100 (0 no effect, 100 complete control)
[17] = Postemergence, 125 g ai/ha, scale 0 to 100, 0 no effect, 100 complete control
[18] = Postemergence, 250 g ai/ha, scale 0 to 100
[19] = Preemergence, 31 g ai/ha, scale 0 (no effect) to 100 (complete control)
[20] = Preemergence, 62 g ai/ha, scale of 0 to 100, 0 is no effect, 100 is complete control
[21] = Preemergence, 125 g ai/ha, scale 0 to 100, 0 no effect, 100 complete control
[22] = Preemergence, 250 g ai/ha, scale 0 to 100, 0 no effect, 100 complete control
[23] = Postemergence, 250 g ai/ha, scale 0 to 100 (0 no effect, 100 complete control)
[24] = 31 g ai/ha, scale 0 to 100 (0 no effect, 100 complete control)
[25] = 62 g ai/ha, scale 0 to 100 (0 no effect, 100 complete control)
[26] = 125 g ai/ha, scale 0 to 100, 0 no effect, 100 complete control
[27] = Preemergence, 62 g ai/ha, scale 0 to 100, 0 no effect, 100 complete control

CCOc1nn(-c2ccc(Cl)cc2)nc1Cc1ccnc(C(F)(F)F)c1 [Compound 188]
30: Plant response rating, Wheat [5, 13]
95: Plant response rating, Chickweed ([10]; 250 g ai/ha, scale 0 to 100)
50: Plant response rating, Wheat [5, 14]
70: Plant response rating, Velvetleaf [4, 11] | Plant response rating, Wheat [5, 11] | Wheat plant response rating [5, 12] | Plant response rating, Morningglory [8, 15]
90: Plant response rating, Crabgrass, Large [1, 11] | Crabgrass, Large plant response rating [1, 12] | Plant response rating, Foxtail, Giant [2, 11] | Foxtail, Giant plant response rating [2, 12] | Velvetleaf plant response rating [4, 12] | Plant response rating, Velvetleaf [4, 14] | Plant response rating, Blackgrass [7, 18] | Plant response rating, Chickweed [10, 25] | Plant response rating, Chickweed [10, 26]
65: Plant response rating, Ragweed [9, 15]
100: Plant response rating, Crabgrass, Large [1, 13] | Plant response rating, Crabgrass, Large [1, 14] | Plant response rating, Foxtail, Giant [2, 13] | Plant response rating, Foxtail, Giant [2, 14] | Plant response rating, Pigweed [3, 11] | Pigweed plant response rating [3, 12] | Plant response rating, Pigweed [3, 13] | Plant response rating, Pigweed [3, 14] | Plant response rating, Blackgrass [7, 20] | Plant response rating, Blackgrass [7, 21] | Plant response rating, Blackgrass [7, 22] | Plant response rating, Morningglory [8, 16] | Plant response rating, Morningglory [8, 17] | Plant response rating, Morningglory [8, 22]
75: Plant response rating, Barnyardgrass (0 to 100 scale, 0 is no effect, 100 is complete control) ([6]; 125 g ai/ha) | Plant response rating, Ragweed [9, 16]
85: Plant response rating, Blackgrass [7, 17] | Plant response rating, Morningglory [8, 21] | Plant response rating, Ragweed [9, 17] | Plant response rating, Ragweed [9, 23]
40: Plant response rating, Velvetleaf [4, 13]
80: Plant response rating, Blackgrass [7, 19] | Plant response rating, Chickweed [10, 24]
60: Plant response rating, Morningglory [8, 20]
55: Plant response rating, Blackgrass [7, 15] | Plant response rating, Blackgrass [7, 16]

CCOc1nn(-c2ccc(F)cc2)nc1Cc1ccnc(C(F)(F)F)c1 [Compound 196, 4-[[5-ethoxy-2-(4-fluorophenyl)-2H-1,2,3-triazol-4-yl]methyl]-2-(trifluoromethyl)pyridine]
98: Plant response rating, Chickweed [10, 24] | Plant response rating, Chickweed [10, 25]
70: Plant response rating, Blackgrass [7, 15] | Plant response rating, Ragweed [9, 15]
40: Plant response rating, Morningglory [8, 19] | Plant response rating, Ragweed [9, 19]
80%: pest or weed control at 125 g/ha ([4]; pre-emergence, Preemergence, 125 g ai/ha, 0 to 100 scale where 0 is no effect and 100 is complete control, read-out: Plant response rating, Velvetleaf)
90%: pest or weed control at 125 g/ha ([1]; post-emergence, Postemergence, 125 g ai/ha, 0 to 100 scale, 0 is no effect, 100 is complete control, read-out: Plant response rating, Crabgrass, Large) | pest or weed control at 500 g/ha ([1]; post-emergence, Postemergence, 500 g ai/ha, 0 to 100 scale, 0 is no effect, 100 is complete control, read-out: Crabgrass, Large plant response rating) | pest or weed control at 125 g/ha ([2]; post-emergence, Postemergence, 125 g ai/ha, 0 to 100 scale, 0 is no effect, 100 is complete control, read-out: Plant response rating, Foxtail, Giant) | pest or weed control at 500 g/ha ([2]; post-emergence, Postemergence, 500 g ai/ha, 0 to 100 scale, 0 is no effect, 100 is complete control, read-out: Foxtail, Giant plant response rating)
70%: plant injury at 500 g/ha ([5]; post-emergence, Postemergence, 500 g ai/ha, 0 to 100 scale, 0 is no effect, 100 is complete control, read-out: Wheat plant response rating) | plant injury at 500 g/ha ([5]; pre-emergence, Preemergence, 500 g ai/ha, 0 to 100 scale (0 no effect, 100 complete control), read-out: Plant response rating, Wheat)
100%: pest or weed control at 125 g/ha ([1]; pre-emergence, Preemergence, 125 g ai/ha, 0 to 100 scale where 0 is no effect and 100 is complete control, read-out: Plant response rating, Crabgrass, Large) | pest or weed control at 500 g/ha ([1]; pre-emergence, Preemergence, 500 g ai/ha, 0 to 100 scale (0 no effect, 100 complete control), read-out: Plant response rating, Crabgrass, Large) | pest or weed control at 125 g/ha ([2]; pre-emergence, Preemergence, 125 g ai/ha, 0 to 100 scale where 0 is no effect and 100 is complete control, read-out: Plant response rating, Foxtail, Giant) | pest or weed control at 500 g/ha ([2]; pre-emergence, Preemergence, 500 g ai/ha, 0 to 100 scale (0 no effect, 100 complete control), read-out: Plant response rating, Foxtail, Giant) | pest or weed control at 125 g/ha ([3]; post-emergence, Postemergence, 125 g ai/ha, 0 to 100 scale, 0 is no effect, 100 is complete control, read-out: Plant response rating, Pigweed) | pest or weed control at 500 g/ha ([3]; post-emergence, Postemergence, 500 g ai/ha, 0 to 100 scale, 0 is no effect, 100 is complete control, read-out: Pigweed plant response rating) | pest or weed control at 125 g/ha ([3]; pre-emergence, Preemergence, 125 g ai/ha, 0 to 100 scale where 0 is no effect and 100 is complete control, read-out: Plant response rating, Pigweed) | pest or weed control at 500 g/ha ([3]; pre-emergence, Preemergence, 500 g ai/ha, 0 to 100 scale (0 no effect, 100 complete control), read-out: Plant response rating, Pigweed) | pest or weed control at 125 g/ha ([4]; post-emergence, Postemergence, 125 g ai/ha, 0 to 100 scale, 0 is no effect, 100 is complete control, read-out: Plant response rating, Velvetleaf) | pest or weed control at 500 g/ha ([4]; post-emergence, Postemergence, 500 g ai/ha, 0 to 100 scale, 0 is no effect, 100 is complete control, read-out: Velvetleaf plant response rating) | pest or weed control at 500 g/ha ([4]; pre-emergence, Preemergence, 500 g ai/ha, 0 to 100 scale (0 no effect, 100 complete control), read-out: Plant response rating, Velvetleaf)
85: Plant response rating, Barnyardgrass (0 to 100 scale, 0 is no effect, 100 is complete control) ([6]; 250 g ai/ha) | Plant response rating, Morningglory [8, 27] | Plant response rating, Ragweed [9, 16]
75: Plant response rating, Morningglory [8, 15] | Plant response rating, Morningglory [8, 16] | Plant response rating, Morningglory [8, 17] | Plant response rating, Morningglory [8, 23]
100: Plant response rating, Morningglory [8, 21] | Plant response rating, Morningglory [8, 22] | Plant response rating, Chickweed [10, 26] | Plant response rating, Chickweed ([10]; 250 g ai/ha, scale 0 to 100)
60: Plant response rating, Ragweed [9, 27]
90: Plant response rating, Blackgrass [7, 19] | Plant response rating, Blackgrass [7, 27] | Plant response rating, Blackgrass [7, 21] | Plant response rating, Blackgrass [7, 22] | Plant response rating, Ragweed [9, 17] | Plant response rating, Ragweed [9, 23] | Plant response rating, Ragweed [9, 22]
80: Plant response rating, Blackgrass [7, 16] | Plant response rating, Blackgrass [7, 17] | Plant response rating, Blackgrass [7, 18] | Plant response rating, Ragweed [9, 21]
50%: plant injury at 125 g/ha ([5]; post-emergence, Postemergence, 125 g ai/ha, 0 to 100 scale, 0 is no effect, 100 is complete control, read-out: Plant response rating, Wheat) | plant injury at 125 g/ha ([5]; pre-emergence, Preemergence, 125 g ai/ha, 0 to 100 scale where 0 is no effect and 100 is complete control, read-out: Plant response rating, Wheat)
